One series concerns HRV-14. Briefly: Antirhinoviral H1-HeLa cell culture assay (cell protection, XTT), HRV-14. The format is cell-based, human rhinovirus. The following applies: Rhinovirus B, read-out: Cell Protection EC50. How it is done: (§1) In this cell protection assay, the ability of compounds to protect cells against HRV infection was measured by the XTT dye reduction method, which is described in Weislow et al., J. Natl. Cancer Inst. 1989, vol. 81, 577–586.
(§2) H1-HeLa cells were infected with HRV-14 at a multiplicity of infection (m.o.i.) of 0.13 (virus particles/cell) or mock-infected with medium only. Infected or mock-infected cells were resuspended at 8×10^5 cells per mL, and incubated with appropriate concentrations of the compounds to be tested. Two days later, XTT/PMS was added to test plates and the amount of formazan produced was quantified spectrophotometrically at 450/650 nm. The EC50 value was calculated as the concentration of compound that increased the percentage of formazan production in compound-treated, virus-infected cells to 50% of that produced by compound-free, mock-infected cells. The 50% cytotoxic dose (CC50) was calculated as the concentration of compound that decreased the percentage of formazan produced in compound-treated, mock-infected cells to 50% of that produced by compound-free, mock-infected cells.
(§3) All strains of human rhinovirus (HRV) for use in this assay were purchased from American Type Culture Collection (ATCC), except for HRV serotype-14 (produced from the infectious cDNA clone constructed by Dr. Robert Rueckert, Institute for Molecular Virology, University of Wisconsin, Madison, Wis.). HRV stocks were propagated and viral assays were performed in H1-HeLa cells (ATCC). Cells were grown in minimal essential medium with 10% fetal bovine serum, available from Life Technologies (Gaithersburg, Md.).
The compounds were tested against control compounds WIN 51711, WIN 52084, and WIN 54954 (obtained from Sterling-Winthrop Pharmaceuticals), Pirodavir (obtained from Janssen Pharmaceuticals), and Pleconaril (prepared according to the method described in Diana et al., J. Med. Chem 1995, vol. 38, 1355). Antiviral data obtained for the test compounds are shown in the Table, where all data are for HRV serotype-14 unless otherwise noted in parentheses.
Background: Tetrazolium assays rely on reduction of a dye to a coloured formazan, in cell work by metabolically active cells.

Series [1] can be described thus: Cytotoxicity in mock-infected H1-HeLa cells (XTT). The format is cell-based. The following applies: human, two days, read-out: Toxicity CC50. How it is done:
as §1, §2, §3

Series [2] addresses T1, rhinovirus 3C protease from HRV serotype-14 (Human rhinovirus 14, UniProt P03303).
T1 construct: Recombinant rhinovirus 3C proteases; made in house
The series is described as follows: Inhibition of rhinovirus 3C protease activity (FRET assay), HRV-14. The conditions noted are these: read-out: Protease Inhibition kobs/I. The format is biochemical. How it is done:
Stock solutions (50 mM, in DMSO) of various compounds were prepared; dilutions were in the same solvent. Recombinant rhinovirus 3C proteases (see Birch et al., “Purification of recombinant human rhinovirus 14 3C protease expressed in Escherichia coli,” Protein Expr. Pur. 1995, 6(5), 609–618) from serotypes 14, 16, and 2 were prepared by the following standard chromatographic procedures: (1) ion exchange using Q Sepharose Fast Flow from Pharmacia; (2) affinity chromatography using Affi-Gel Blue from Biorad; and (3) sizing using Sephadex G-100 from Pharmacia. Each assay sample contained 2% DMSO, 50 mM tris pH 7.6, 1 mM EDTA, a test compound at the indicated concentration, approximately 1 μM substrate, and 50–100 nM protease. The kobs/I values were obtained from reactions initiated by addition of enzyme rather than substrate. RVP activity was measured in the fluorescence resonance energy transfer assay. The substrate was (N-terminal) DABCYL-(Gly-Arg-Ala-Val-Phe-Gln-Gly-Pro-Val-Gly)-EDANS. In the uncleaved peptide, the EDANS fluorescence was quenched by the proximal DABCYL group. When the peptide was cleaved, the quenching was relieved, and activity was measured as an increase in fluorescence signal. In the Table, unless otherwise indicated, all data are for rhinovirus 3C protease from HRV serotype-14 (produced from the infectious cDNA clone constructed by Dr. Robert Rueckert, Institute for Molecular Virology, University of Wisconsin, Madison, Wis.). The data in the column designated kobs/[I] were measured from progress curves in enzyme start experiments.

[3] abbreviates: HRV14, 48 h, HRV-14, H1-HeLa cells, XTT, two days.
The mark [4] stands for this setting: HRV-14 3C protease, progress curves, enzyme start.

pEC50: −log10 of the molar value. Read-outs that look alike come from different tables or passages of the source.

Data on 23 molecules can be found in patent US6989384B2, “Antipicornaviral compounds and compositions, their pharmaceutical uses, and materials for their synthesis” (Agouron Pharmaceuticals, Inc., priority 2000, dated 2006).

T1 sequence (P03303 1538-1719): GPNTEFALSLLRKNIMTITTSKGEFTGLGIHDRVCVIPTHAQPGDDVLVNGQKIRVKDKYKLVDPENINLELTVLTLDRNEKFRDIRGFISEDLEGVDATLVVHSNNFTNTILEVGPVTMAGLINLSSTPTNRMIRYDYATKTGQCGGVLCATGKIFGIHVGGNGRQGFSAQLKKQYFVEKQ

Broadly, the pEC50 is −log10 of the EC50, conventionally taken in molar units. The term CC50 denotes the concentration giving 50% cytotoxicity. As for `CCOC(=O)/C=C/[C@H](C[C@@H]1CCNC1=O)NC(=O)/C=C/c1cccc(Br)c1` [Compound 3, 4S-[3-(3-bromo-phenyl)-acryloylamino]-5-(2-oxo-pyrrolidin-3S-yl)-pent-2-enoic acid ethyl ester], the pEC50 in the series on HRV-14 (HRV14, H1-HeLa, 48 h) was 5.85. Besides, the CC50 at 2 days in series [1] is over 10 µM. Also, in series [2], the kinact/KI came to 2560 M⁻¹ s⁻¹.

Consider `CCOC(=O)/C=C/[C@H](C[C@@H]1CCNC1=O)NC(=O)c1cc2cc(CC)ccc2[nH]1` [Compound 8, 4S-[(5-ethyl-1H-indole-2-carbonyl)-amino]-5-(2-oxo-pyrrolidin-3S-yl)-pent-2-enoic acid ethyl ester], for which the pEC50 in the series with HRV-14 (HRV14, H1-HeLa, 48 h) is 5.57. In addition, in series [1], the CC50 at 2 days was over 10 µM. In addition, in series [2], the kinact/KI was determined as 980 M⁻¹ s⁻¹.

On to `CCOC(=O)/C=C/[C@H](C[C@@H]1CCNC1=O)NC(=O)/C=C/c1ccc2c(c1)OCO2` [Compound 9, 4S-(3-benzo[1,3]dioxol-5-yl-acryloylamino)-5-(2-oxo-pyrrolidin-3S-yl)-pent-2-enoic acid ethyl ester], for which, in the series with HRV-14 (HRV14, H1-HeLa, 48 h), the pEC50 was 5.74. Moreover, in series [1], the CC50 at 2 days was over 10 µM. Besides, the kinact/KI in series [2] was determined as 1960 M⁻¹ s⁻¹.

Regarding `CCOC(=O)/C=C/[C@H](C[C@@H]1CCNC1=O)NC(=O)/C=C/c1ccc(C)cc1` [Compound 12, 5-(2-oxo-pyrrolidin-3S-yl)-4S-(3-p-tolyl-acryloylamino)-pent-2-enoic acid ethyl ester], the pEC50 with HRV-14 (HRV14, H1-HeLa, 48 h) is 5.56. Besides, the CC50 at 2 days in series [1] is over 10 µM. In series [2], the kinact/KI amounted to 990 M⁻¹ s⁻¹.

With `CCOC(=O)/C=C/[C@H](C[C@@H]1CCNC1=O)NC(=O)/C=C/c1ccc([N+](=O)[O-])cc1` [Compound 15, 4S-[3-(4-nitro-phenyl)-acryloylamino]-5-(2-oxo-pyrrolidin-3S-yl)-pent-2-enoic acid ethyl ester], the pEC50 in the series on HRV-14 (HRV14, H1-HeLa, 48 h) was 5.82. The CC50 at 2 days in series [1] was over 10 µM. For the same molecule, the kinact/KI in series [2] came to 2020 M⁻¹ s⁻¹.

As to `CCOC(=O)/C=C/[C@H](C[C@@H]1CCNC1=O)NC(=O)c1cc2cc(OC)c(OC)cc2n1C` [Compound 19, 4S-[(5,6-dimethoxy-1-methyl-indole-2-carbonyl)-amino]-5-(2-oxo-pyrrolidin-3S-yl)-pent-2-enoic acid ethyl ester], the pEC50 in the series on HRV-14 (HRV14, H1-HeLa, 48 h) was 5.87. Also, the cytotoxic concentration (CC50) at 2 days in series [1] was over 10 µM. Further, in series [2], the kinact/KI is 1230 M⁻¹ s⁻¹.

As to `CCOC(=O)/C=C/[C@H](C[C@@H]1CCNC1=O)NC(=O)c1cc2cc(Br)ccc2[nH]1` [Compound 20], the negative logarithm of the EC50 (pEC50) in the series with HRV-14 (HRV14, H1-HeLa, 48 h) was 5.36. The CC50 at 2 days in series [1] is over 10 µM. Also, in series [2], the kinact/KI is 1370 M⁻¹ s⁻¹.

Consider `CCOC(=O)/C=C/[C@H](C[C@@H]1CCNC1=O)NC(=O)c1cc2cc(Br)ccc2n1C` [Compound 21, 4S-[(5-bromo-1-methyl-indole-2-carbonyl)-amino]-5-(2-oxo-pyrrolidin-3S-yl)-pent-2-enoic acid ethyl ester], for which the pEC50 with HRV-14 (HRV14, H1-HeLa, 48 h) is 5.51. For the same molecule, the CC50 at 2 days in series [1] is 17.8 µM. For the same molecule, the kinact/KI in series [2] worked out at 1320 M⁻¹ s⁻¹.

Take `CCOC(=O)/C=C/[C@H](C[C@@H]1CCNC1=O)NC(=O)/C=C/c1ccc(C)c(Br)c1` [Compound 23, 4S-[3-(3-bromo-4-methyl-phenyl)-acryloylamino]-5-(2-oxo-pyrrolidin-3S-yl)-pent-2-enoic acid ethyl ester]: the pEC50 in the series on HRV-14 (HRV14, H1-HeLa, 48 h) is 5.89. In addition, the CC50 at 2 days in series [1] was over 10 µM. The kinact/KI in series [2] was determined as 4080 M⁻¹ s⁻¹.

For `CCOC(=O)/C=C/[C@H](C[C@@H]1CCNC1=O)NC(=O)N[C@@H](CC(C)C)C(=O)OCC` [Compound 24, 4S-[3-(1S-ethoxycarbonyl-3-methyl-butyl)-ureido]-5-(2-oxo-pyrrolidin-3S-yl)-pent-2-enoic acid ethyl ester], the pEC50 in the series on HRV-14 (HRV14, H1-HeLa, 48 h) is 5.34. Also, the CC50 at 2 days in series [1] is over 10 µM. The kinact/KI in series [2] was determined as 1050 M⁻¹ s⁻¹.

For `CCOC(=O)/C=C/[C@H](CCC(N)=O)NC(=O)c1ccc(N(C)C)cc1` [Compound 27], the pEC50 in the series on HRV-14 (setting [3]) was 5.41. Also, the CC50 at 2 days in series [1] was over 100 µM. Further, the kinact/KI in series [2] (setting [4]) amounted to 45 M⁻¹ s⁻¹.

With `CCOC(=O)/C=C/[C@H](CCC(N)=O)NC(=O)c1cnc2ccccc2n1` [Compound 28, 6-carbamoyl-4S-[(quinoxaline-2-carboxyl)-amino]-hex-2-enoic acid ethyl ester], in the series on HRV-14 (setting [3]), the pEC50 was 4.85. Besides, in series [1], the 50% cytotoxic concentration (CC50) at 2 days was over 100 µM. Moreover, the kinact/KI in series [2] (setting [4]) was found to be 64 M⁻¹ s⁻¹.

As for `CCOC(=O)/C=C/[C@H](CCC(N)=O)NC(=O)/C=C/c1ccccc1` [Compound 29, 6-carbamoyl-4S-(3-phenyl-acryloylamino)-hex-2-enoic acid ethyl ester], the pEC50 in the series with HRV-14 (setting [3]) is 4.50. In series [1], the CC50 at 2 days is over 100 µM. In addition, the kinact/KI in series [2] (setting [4]) was found to be 62 M⁻¹ s⁻¹.

As for `CCOC(=O)/C=C/[C@H](CCC(N)=O)NC(=O)/C=C/c1cccc(Br)c1` [Compound 30, 4S-[3-(3-bromophenyl)-acryloylamino]-6-carbamoyl-hex-2-enoic acid ethyl ester], the pEC50 in the series with HRV-14 (setting [3]) is 5.49. In addition, in series [1], the CC50 at 2 days was over 100 µM. Further, the kinact/KI in series [2] (setting [4]) amounted to 345 M⁻¹ s⁻¹.

For the molecule `CCOC(=O)/C=C/[C@H](CCC(N)=O)NC(=O)c1ccc2ccccc2n1` [Compound 31, 6-carbamoyl-4S-[(quinoline-2-carbonyl)-amino]-hex-2-enoic acid ethyl ester], in the series with HRV-14 (setting [3]), the pEC50 is 5.15. Further, the CC50 at 2 days in series [1] was over 100 µM. The kinact/KI in series [2] (setting [4]) was 110 M⁻¹ s⁻¹.

As to `CCOC(=O)/C=C/[C@H](CCC(N)=O)NC(=O)c1nn(-c2ccccc2)nc1C` [Compound 32, 6-carbamoyl-4S-[(5-methyl-2-phenyl-2H-[1,2,3]triazole-4-carbonyl)-amino]-hex-2-enoic acid ethyl ester], the pEC50 in the series on HRV-14 (setting [3]) is 5.74. For the same molecule, the CC50 at 2 days in series [1] is over 100 µM. For the same molecule, the kinact/KI in series [2] (setting [4]) was 83 M⁻¹ s⁻¹.

On to `CCOC(=O)/C=C/[C@H](CCC(N)=O)NC(=O)c1cc(C(C)(C)C)nn1Cc1ccccc1` [Compound 33, 4S-[(2-benzyl-5-tert-butyl-2H-pyrazole-3-carbonyl)-amino]-6-carbamoyl-hex-2-enoic acid ethyl ester], for which the pEC50 in the series with HRV-14 (setting [3]) was 4.90. The CC50 at 2 days in series [1] is over 100 µM. Further, in series [2] (setting [4]), the kinact/KI worked out at 27 M⁻¹ s⁻¹.

For the molecule `CCOC(=O)/C=C/[C@H](CCC(N)=O)NC(=O)c1ccccc1` [Compound 34], in the series on HRV-14 (setting [3]), the pEC50 is under 4.00. Moreover, in series [1], the CC50 at 2 days was over 100 µM. Besides, in series [2] (setting [4]), the kinact/KI is 10 M⁻¹ s⁻¹.

Consider `CCOC(=O)/C=C/[C@H](C[C@@H]1CCNC1=O)NC(=O)/C=C/c1cc(Br)ccc1Br` [Compound 64, 4S-[3-(2,5-dibromo-phenyl)-acryloylamino]-5-(2-oxo-pyrrolidin-3S-yl)-pent-2-enoic acid ethyl ester], for which the kinact/KI in series [2] (setting [4]) was 6850 M⁻¹ s⁻¹.

As for `CCOC(=O)/C=C/[C@H](C[C@@H]1CCNC1=O)NC(=O)c1ccc2cc(O)ccc2c1` [Compound 65, 4S-[(6-hydroxy-naphthalene-2-carbonyl)-amino]-5-(2-oxo-pyrrolidin-3S-yl)-pent-2-enoic acid ethyl ester], the kinact/KI in series [2] (setting [4]) was determined as 570 M⁻¹ s⁻¹.

On to `CCOC(=O)/C=C/[C@H](C[C@@H]1CCNC1=O)NC(=O)c1cc2ccccc2cc1N` [Compound 69, 4S-[(3-amino-naphthalene-2-carbonyl)-amino]-5-(2-oxo-pyrrolidin-3S-yl)-pent-2-enoic acid ethyl ester], for which the kinact/KI in series [2] (setting [4]) is 142 M⁻¹ s⁻¹.

As for `CCOC(=O)c1ccc(OCCC2CCN(c3ccc(C)nn3)CC2)cc1` [Pirodavir, reference compound], the pEC50 in the series on HRV-14 (setting [3]) is 7.52. Also, the CC50 at 2 days in series [1] is over 10 µM.

Take `Cc1cc(CCCOc2c(C)cc(-c3noc(C(F)(F)F)n3)cc2C)on1` [Pleconaril, reference compound]: in the series with HRV-14 (setting [3]), the pEC50 was 8.00. For the same molecule, the CC50 at 2 days in series [1] was over 10 µM.
